From patent US9376396B2, “Acylaminocycloalkyl compounds suitable for treating disorders that respond to modulation of dopamine D3 receptor” (AbbVie Deutschland GmbH & Co. KG, priority 2012, dated 2016)

What was measured:
hERG cardiac K+ channel = target: T1, hERG cardiac K+ channel (Homo sapiens, UniProt Q12809); experiment: Blocking the hERG channel ([3H]dofetilide displacement); format: binding; conditions: membrane homogenate from HEK 293 cells expressing hERG
T1 construct: expressed in transfected cells; host or cells: HEK-293
Experimental: The binding affinity of test drugs for the hERG cardiac K^+ channel was determined by their ability to displace tritiated dofetilide (a class III antiarrhythmic drug and potent hERG blocker) in membrane homogenates from HEK-293 cells heterogeneously expressing the hERG channel. The assay was performed as previously described G. J. Diaz et al., Journal of Pharmacological and Toxicological Methods, 50 (2004), 187-199). For this, drug dilutions were prepared from 10 mM DMSO stocks and the following were added to a 96-well polystyrene plate (Perkin-Elmer Optiplate): 20 μl of assay binding buffer (for total bounds), or 1 μM astemizole (for non-specific bounds), or test drug, 50 μl of [^3H]dofetilide (20 nM, ˜80 Ci/mmol specific activity), and 130 μl of membrane homogenate from HEK 293 cells stably transfected with hERG K^+ channels (final protein concentration of 30 μg per well). The plates were incubated at ambient temperature for 45 min, aspirated onto GF/B filter plates (Perkin-Elmer), and washed with 2 ml of cold wash buffer. After allowing the plates to dry, 50 μl of scintillant (Perkin-Elmer MicroScint 20) were added to each well and the radioactivity was counted in a Perkin-Elmer Topcount NXT scintillation counter. IC50 determinations were calculated from competition curves using 6 drug concentrations, half-log apart, starting at a high concentration of 100 μM (final assay DMSO concentration=1%) using a four-parameter logistic equation. The results are given as IC50 value.

[1] = Determination of the microsomal half-life / microsomal clearance, human; format: in vitro ADME; conditions: human liver microsomes, 0.5 μM test substance, 0.25 mg microsomal protein/ml, NADPH, 37° C.
Experimental: (§1) The metabolic stability of the compounds of the invention was determined in the following assay.
(§2) The test substances were incubated in a concentration of 0.5 μM as follows:
(§3) 0.5 μM test substance are preincubated together with liver microsomes from different species (from rat, human or other species) (0.25 mg of microsomal protein/ml) in 0.05 M potassium phosphate buffer of pH 7.4 in microtiter plates at 37° C. for 5 min. The reaction is started by adding NADPH (1 mg/mL). After 0, 5, 10, 15, 20 and 30 min, 50 μl aliquots are removed, and the reaction is immediately stopped and cooled with the same volume of acetonitrile. The samples are frozen until analyzed. The remaining concentration of undegraded test substance is determined by MSMS. The half-life (T½) is determined from the gradient of the signal of test substance/unit time plot, it being possible to calculate the half-life of the test substance, assuming first order kinetics, from the decrease in the concentration of the compound with time. The microsomal clearance (mCl) is calculated from mCl=ln 2/T½/(content of microsomal protein in mg/ml)×1000 [ml/min/mg] (modified from references: Di, The Society for Biomoleculur Screening, 2003, 453-462; Obach, DMD, 1999 vol 27. N 11, 1350-1359).

[2] = target: T2, human dopamine D2L receptors (long isoform) (Homo sapiens, UniProt P14416); experiment: Receptor binding study, dopamine D2L receptor ([125I]iodospiperone displacement), selectivity vs D3; conditions: selectivity ratio, HEK-293 membranes
T2 construct: expressed in transfected cells; host or cells: HEK-293
Experimental: (§4) The substance to be tested was either dissolved in methanol/Chremophor® (BASF SE) or in dimethyl sulfoxide and then diluted with water to the desired concentration.
(§5) Each assay mixture was run in triplicate. • The incubation buffer contained 50 mM tris, 120 mM NaCl, 5 mM KCl, 2 mM CaCl2, 2 mM MgCl2 and 0.1% bovine serum albumin, 10 μM quinolone and 0.1% ascorbic acid (prepared fresh daily). […] Each assay mixture was run in triplicate. • The incubation buffer contained 50 mM tris, 120 mM NaCl, 5 mM KCl, 2 mM CaCl2, 2 mM MgCl2 and 0.1% bovine serum albumin. The buffer was adjusted to pH 7.4 with HCl. c) Measurement and Analysis: • After having been incubated at 25° C. for 60 minutes, the assay mixtures were filtered through a Whatman GF/B glass fiber filter under vacuum using a cell collecting device. The filters were transferred to scintillation viols using a filter transfer system. After 4 ml of Ultima Gold® (Packard) have been added, the samples were shaken for one hour and the radioactivity was then counted in a Beta-Counter (Packard, Tricarb 2000 or 2200CA).

[3] = target: T3, human dopamine D3 receptors (Homo sapiens, UniProt P35462); experiment: Receptor binding study, dopamine D3 receptor ([125I]-iodosulpride displacement); conditions: membranes of HEK-293 cells, 0.1 nM [125I]-iodosulpride, 25° C., 60 minutes
T3 construct: expressed in transfected cells; host or cells: HEK-293
Experimental: as §4, §5

[4] = Determination of the microsomal half-life / microsomal clearance, rat; format: in vitro ADME; conditions: rat liver microsomes, 0.5 μM test substance, 0.25 mg microsomal protein/ml, NADPH, 37° C.
Experimental: as §1, §2, §3

T1 sequence (Q12809 whole entry): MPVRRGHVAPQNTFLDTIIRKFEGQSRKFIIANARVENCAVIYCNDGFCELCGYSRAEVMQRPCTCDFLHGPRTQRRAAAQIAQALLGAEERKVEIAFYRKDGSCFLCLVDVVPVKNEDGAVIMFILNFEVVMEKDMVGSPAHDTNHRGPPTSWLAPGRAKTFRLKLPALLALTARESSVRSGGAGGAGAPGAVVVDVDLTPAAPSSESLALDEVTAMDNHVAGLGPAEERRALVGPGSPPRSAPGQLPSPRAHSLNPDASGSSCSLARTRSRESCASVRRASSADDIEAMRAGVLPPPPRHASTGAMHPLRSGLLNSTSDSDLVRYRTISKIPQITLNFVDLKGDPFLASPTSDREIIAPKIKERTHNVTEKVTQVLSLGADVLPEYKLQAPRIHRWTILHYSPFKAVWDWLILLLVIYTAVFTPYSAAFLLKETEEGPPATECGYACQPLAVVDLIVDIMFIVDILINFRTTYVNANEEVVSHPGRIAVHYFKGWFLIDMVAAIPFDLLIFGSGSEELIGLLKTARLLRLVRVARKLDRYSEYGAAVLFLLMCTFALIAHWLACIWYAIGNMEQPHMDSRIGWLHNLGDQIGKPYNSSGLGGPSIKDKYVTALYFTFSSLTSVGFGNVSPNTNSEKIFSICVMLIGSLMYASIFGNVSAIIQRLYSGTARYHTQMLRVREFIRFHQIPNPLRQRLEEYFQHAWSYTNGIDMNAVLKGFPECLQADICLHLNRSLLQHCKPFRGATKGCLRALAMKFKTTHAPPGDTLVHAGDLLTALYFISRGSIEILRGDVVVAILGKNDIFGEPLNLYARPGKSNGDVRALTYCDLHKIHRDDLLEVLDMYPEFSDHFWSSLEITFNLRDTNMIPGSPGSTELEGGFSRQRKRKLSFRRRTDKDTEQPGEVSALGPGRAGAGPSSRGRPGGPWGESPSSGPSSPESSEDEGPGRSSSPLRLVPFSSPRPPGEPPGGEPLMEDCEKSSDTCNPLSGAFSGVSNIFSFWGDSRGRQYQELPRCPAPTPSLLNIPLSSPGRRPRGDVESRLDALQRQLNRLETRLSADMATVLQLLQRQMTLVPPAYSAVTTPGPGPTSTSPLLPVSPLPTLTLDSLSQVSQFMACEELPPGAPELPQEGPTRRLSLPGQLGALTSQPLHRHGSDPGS
T3 sequence (P35462 whole entry): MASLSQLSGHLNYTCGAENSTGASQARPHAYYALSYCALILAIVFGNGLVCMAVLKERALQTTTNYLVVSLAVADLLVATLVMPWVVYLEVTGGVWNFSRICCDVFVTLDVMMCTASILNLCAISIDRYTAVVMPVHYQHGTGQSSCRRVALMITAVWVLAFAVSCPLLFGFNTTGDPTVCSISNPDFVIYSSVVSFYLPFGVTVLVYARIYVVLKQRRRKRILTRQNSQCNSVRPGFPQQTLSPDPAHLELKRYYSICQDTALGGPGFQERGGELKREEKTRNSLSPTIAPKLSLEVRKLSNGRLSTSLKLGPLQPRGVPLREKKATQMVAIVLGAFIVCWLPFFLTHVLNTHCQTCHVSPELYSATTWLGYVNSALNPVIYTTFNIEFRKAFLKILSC
T2 sequence (P14416 whole entry, canonical isoform): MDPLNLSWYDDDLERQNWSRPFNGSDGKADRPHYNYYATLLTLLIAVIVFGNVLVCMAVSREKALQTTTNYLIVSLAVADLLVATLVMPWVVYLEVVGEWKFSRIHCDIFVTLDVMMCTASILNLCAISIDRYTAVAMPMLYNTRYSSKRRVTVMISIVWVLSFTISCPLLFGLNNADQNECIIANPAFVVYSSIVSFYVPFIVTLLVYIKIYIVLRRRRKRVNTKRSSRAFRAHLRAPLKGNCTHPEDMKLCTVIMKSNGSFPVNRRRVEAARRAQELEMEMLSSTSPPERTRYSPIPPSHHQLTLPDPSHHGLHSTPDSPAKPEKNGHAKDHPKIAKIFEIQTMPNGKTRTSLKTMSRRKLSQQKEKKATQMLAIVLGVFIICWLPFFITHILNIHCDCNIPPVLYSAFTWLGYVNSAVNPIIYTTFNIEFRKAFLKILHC

Molecule	Human mCl [1]	D2/D3 (Ki (D2L)/Ki (D3)) [2]	Ki [3]	Rat mCl [4]	IC50 (hERG cardiac K+ channel)
COCCc1cc(N2CCN(CC[C@H]3CC[C@H](NC(C)=O)CC3)CC2)nc(C(C)(C)C)n1 [Compound 1, trans-N-[4-(2-{4-[2-tert-Butyl-6-(2-methoxy-ethyl)-pyrimidin-4-yl]-piperazin-1-yl}-ethyl)-cyclohexyl]-acetamide]	+ (+: 20-120 μl min^−1 mg^−1)	+++ (+++>50)	< 10 nM	+ (+: 20-120 μl min^−1 mg^−1)	> 10 µM
COCc1cc(N2CCN(CC[C@H]3CC[C@H](NC(C)=O)CC3)CC2)nc(C(C)(C)C)n1 [Compound 2, trans-N-[4-(2-{4-[2-tert-butyl-6-(methoxymethyl)-pyrimidin-4-yl]-piperazin-1-yl}-ethyl)-cyclohexyl]-acetamide]	+ (+: 20-120 μl min^−1 mg^−1)	+++ (+++>50)	< 10 nM	+ (+: 20-120 μl min^−1 mg^−1)	> 10 µM
COCCc1cc(N2CCN(CC[C@H]3CC[C@H](NC(C)=O)CC3)C[C@H]2C)nc(C(C)(C)C)n1 [Compound 6, trans-N-[4-(2-{(3R)-4-[2-tert-Butyl-6-(2-methoxy-ethyl)-pyrimidin-4-yl]-3-methyl-piperazin-1-yl}-ethyl)-cyclohexyl]-acetamide]	+ (+: 20-120 μl min^−1 mg^−1)	+++ (+++>50)	< 10 nM	∘ (∘: >120 μl min^−1 mg^−1)	> 10 µM
COCCc1cc(N2CCN(CC[C@H]3CC[C@@H](NC(C)=O)CC3)[C@@H](C)C2)nc(C(C)(C)C)n1 [Compound 7, cis-N-[4-(2-{(2S)-4-[2-tert-Butyl-6-(2-methoxy-ethyl)-pyrimidin-4-yl]-2-methyl-piperazin-1-yl}-ethyl)-cyclohexyl]-acetamide]	+ (+: 20-120 μl min^−1 mg^−1)	+++ (+++>50)	< 10 nM	+ (+: 20-120 μl min^−1 mg^−1)	> 10 µM
COCCc1cc(N2CCN(CC[C@H]3CC[C@H](NC(C)=O)CC3)[C@@H](C)C2)nc(C(C)(C)C)n1 [Compound 9, trans-N-[4-(2-{(2S)-4-[2-tert-Butyl-6-(2-methoxy-ethyl)-pyrimidin-4-yl]-2-methyl-piperazin-1-yl}-ethyl)-cyclohexyl]-acetamide]	+ (+: 20-120 μl min^−1 mg^−1)	+++ (+++>50)	< 10 nM	+ (+: 20-120 μl min^−1 mg^−1)	> 10 µM
trans-N-[4-[2-[4-(2-tert-butyl-6-tetrahydrofuran-3-yl-pyrimidin-4-yl)piperazin-1-yl]ethyl]cyclohexyl]formamide [Compound 27]	+ (+: 20-120 μl min^−1 mg^−1)	+++ (+++>50)	< 10 nM	+ (+: 20-120 μl min^−1 mg^−1)	–

Further lines, with some results ahead:

Human mCl [1]	D2/D3 (Ki (D2L)/Ki (D3)) [2]	Ki [3]	Rat mCl [4]	Molecule	IC50 (hERG cardiac K+ channel)
+ (+: 20-120 μl min^−1 mg^−1)	+++ (+++>50)	< 10 nM	+ (+: 20-120 μl min^−1 mg^−1)	COCCc1cc(N2CCN(CC[C@H]3CC[C@H](NC=O)CC3)CC2)nc(C(C)(C)C)n1 [Compound 11, trans-N-[4-(2-{4-[2-tert-Butyl-6-(2-methoxy-ethyl)-pyrimidin-4-yl]-piperazin-1-yl}-ethyl)-cyclohexyl]-formamide]	> 10 µM
+ (+: 20-120 μl min^−1 mg^−1)	+++ (+++>50)	< 50 nM	+ (+: 20-120 μl min^−1 mg^−1)	CC(C)(C)c1nc(CCO)cc(N2CCN(CC[C@H]3CC[C@H](NC=O)CC3)CC2)n1 [Compound 23, trans-N-[4-[2-[4-[2-tert-butyl-6-(2-hydroxyethyl)pyrimidin-4-yl]piperazin-1-yl]ethyl]cyclohexyl]formamide]	–
+ (+: 20-120 μl min^−1 mg^−1)	+++ (+++>50)	< 50 nM	+ (+: 20-120 μl min^−1 mg^−1)	COCCc1cc(N2CCN(CC[C@H]3CC[C@H](NC=O)CC3)[C@H](C)C2)nc(C(C)(C)C)n1 [Compound 24, trans-N-[4-[2-[(2R)-4-[2-tert-butyl-6-(2-methoxyethyl)pyrimidin-4-yl]-2-methyl-piperazin-1-yl]ethyl]cyclohexyl]formamide]	–
+ (+: 20-120 μl min^−1 mg^−1)	+++ (+++>50)	< 10 nM	+ (+: 20-120 μl min^−1 mg^−1)	CC(=O)N[C@H]1CC[C@H](CCN2CCN(c3cc(CCO)nc(C(C)(C)C)n3)[C@@H](C)C2)CC1 [Compound 25, trans-N-[4-[2-[(3S)-4-[2-tert-butyl-6-(2-hydroxyethyl)pyrimidin-4-yl]-3-methyl-piperazin-1-yl]ethyl]cyclohexyl]acetamide]	–
+ (+: 20-120 μl min^−1 mg^−1)	+ (+>10)	< 50 nM	+ (+: 20-120 μl min^−1 mg^−1)	COCCc1cc(N2CCN(CCC3CC(NC=O)C3)C[C@@H]2C)nc(C(C)(C)C)n1 (stereo partly drawn) [Compound 28, N-[3-[2-[(3S)-4-[2-tert-butyl-6-(2-methoxyethyl)pyrimidin-4-yl]-3-methyl-piperazin-1-yl]ethyl]cyclobutyl]formamide]	–
+ (+: 20-120 μl min^−1 mg^−1)	+++ (+++>50)	< 50 nM	+ (+: 20-120 μl min^−1 mg^−1)	CC(=O)N[C@H]1CC[C@H](CCN2CCN(c3cc(CCO)nc(C(C)(C)C)n3)[C@H](C)C2)CC1 [Compound 29, trans-N-[4-[2-[(3R)-4-[2-tert-butyl-6-(2-hydroxyethyl)pyrimidin-4-yl]-3-methyl-piperazin-1-yl]ethyl]cyclohexyl]acetamide]	–
+ (+: 20-120 μl min^−1 mg^−1)	++ (++>20)	< 50 nM	+ (+: 20-120 μl min^−1 mg^−1)	COCCc1cc(N2CCN(CC[C@H]3C[C@H](NC(C)=O)C3)C[C@@H]2C)nc(C(C)(C)C)n1 [Compound 30, trans-N-[3-[2-[(3S)-4-[2-tert-butyl-6-(2-methoxyethyl)pyrimidin-4-yl]-3-methyl-piperazin-1-yl]ethyl]cyclobutyl]acetamide]	–
+ (+: 20-120 μl min^−1 mg^−1)	+ (+>10)	< 10 nM	+ (+: 20-120 μl min^−1 mg^−1)	COCCc1cc(N2CCN(CC[C@H]3C[C@@H](NC(C)=O)C3)C[C@@H]2C)nc(C(C)(C)C)n1 [Compound 31, cis-N-[3-[2-[(3S)-4-[2-tert-butyl-6-(2-methoxyethyl)pyrimidin-4-yl]-3-methyl-piperazin-1-yl]ethyl]cyclobutyl]acetamide]	–
+ (+: 20-120 μl min^−1 mg^−1)	+++ (+++>50)	< 10 nM	∘ (∘: >120 μl min^−1 mg^−1)	CC(=O)N[C@H]1CC[C@H](CCN2CCN(c3cc(CCOC(F)F)nc(C(C)(C)C)n3)[C@@H](C)C2)CC1 [Compound 32, trans-N-[4-[2-[(3S)-4-[2-tert-butyl-6-[2-(difluoromethoxy)ethyl]pyrimidin-4-yl]-3-methyl-piperazin-1-yl]ethyl]cyclohexyl]acetamide]	–
